Data set [1] relates to HepG2. Briefly: Antiproliferative activity against human HepG2 cells by MTT assay. The format is functional, cell-based.
A short description of data set [2]: Antiproliferative activity against human HepG2/ADM cells by MTT assay. The format is functional, cell-based.
Data set [3] can be described thus: Antiproliferative activity against human AC16 cells by MTT assay. Type of data set: cell-based.
Data set [4] in a line: Selectivity index, ratio of IC50 for human AC16 cells to IC50 for human HepG2 cells. The format is toxicity. Conditions: AC16 cells and HepG2 cells, read-out: Ratio IC50.
A short description of data set [5]: Cytotoxic activity against human AC16 cells assessed as cell swelling at 1 uM after 24 hrs by phase contrast microscopic method. Type of data set: cell-based.
A short description of data set [6]: Toxicity in ip dosed Kunming mouse assessed as mortality. Conditions: in vivo. The format is organism-based.
Data set [7] has as its system HepG2. Briefly: Antiproliferative activity against human HepG2 cells after 48 hrs by MTT assay. The format is functional, cell-based. Conditions: HepG2, 48 h.
A short description of data set [8]: Cytotoxic activity against human AC16 cells assessed as cell detachment from substratum at 1 uM after 24 hrs by phase contrast microscopic method. Type of data set: cell-based.
The subject of data set [9] is HepG2. Briefly: Inhibition of ROS generation in human HepG2 cells at 1 uM after 2 hrs by DCFH-DA staining based method. Type of data set: functional, cell-based.
The species named for a further data set is Homo sapiens. Put plainly: Cytoprotective activity against H2O2-induced oxidative damage in human AC16 cells at 1 uM preincubated for 30 mins followed by H2O2 addition and measured after 6 hrs. The format is functional, cell-based.

Calls of active or inactive are those of the source. The calls are words filed in the database; no cut-off is given here.

`C[C@]12CC[C@H](O)C[C@H]1CC[C@@H]1[C@@H]2[C@H](O)C(=O)[C@]2(C)[C@@H](c3ccc(=O)oc3)CC[C@]12O`: the IC50 was 20 nM in the data set on HepG2 [1], 56 nM in data set [2], 5 nM in data set [3] and 0.1 to 10 nM with HepG2 [7]. Besides, the selectivity ratio in data set [4] came to 0.25. Further, the Activity entry in [5] and in data set [8] was “Toxic” throughout. Besides, the LD50 in [6] amounted to 20 mg/kg.

As for `C[C@]12CC[C@H](OC(=O)[C@H](Cc3ccccc3)n3[se]c4cc(C(F)(F)F)ccc4c3=O)C[C@H]1CC[C@@H]1[C@@H]2[C@H](O)C(=O)[C@]2(C)[C@@H](c3ccc(=O)oc3)CC[C@]12O`, the IC50 in the data set with HepG2 [1] worked out at 265 nM; in data set [2] it was 9740 nM; in data set [3], 4300 nM. In the data set on HepG2 [9], the inhibition entry was “Active”. Further, the selectivity ratio in [4] was determined as 16.2. Also, the outcome in the data set listed under Homo sapiens was Active. Further, the Activity result in data set [5] and in [8] was “Non-Toxic” throughout.

With `Cc1ccc2c(=O)n(CC(=O)O[C@H]3CC[C@@]4(C)[C@H](CC[C@@H]5[C@@H]4[C@H](O)C(=O)[C@]4(C)[C@@H](c6ccc(=O)oc6)CC[C@]54O)C3)[se]c2c1`, the values for the IC50 (with HepG2 [1]; in [2]; in data set [3]) were 607 nM, 2450 nM and 2130 nM, respectively. Also, the selectivity ratio in data set [4] stood at 3.51.

For `CC[C@H](C)[C@@H](C(=O)O[C@H]1CC[C@@]2(C)[C@H](CC[C@@H]3[C@@H]2[C@H](O)C(=O)[C@]2(C)[C@@H](c4ccc(=O)oc4)CC[C@]32O)C1)n1[se]c2cc(OC)ccc2c1=O`, the IC50 in the data set with HepG2 [1] is 14500 nM; in data set [2], 36700 nM; in data set [3], 15000 nM. In [4], the selectivity ratio was determined as 1.03.

On to `C[C@]12CC[C@H](OC(=O)[C@H](Cc3ccccc3)n3[se]c4ccccc4c3=O)C[C@H]1CC[C@@H]1[C@@H]2[C@H](O)C(=O)[C@]2(C)[C@@H](c3ccc(=O)oc3)CC[C@]12O`, for which the IC50 stood at 339 nM with HepG2 [1], 5590 nM in data set [2] and 3210 nM in [3]. For the same compound, the inhibition result with HepG2 [9] was “Active”. The selectivity ratio in data set [4] is 9.47. Also, the result in the data set filed under Homo sapiens was Active. The Activity entry in data set [5] and in [8] was “Non-Toxic” in each case.

Regarding `O=c1c2ccccc2[se]n1-c1ccccc1`, the result in the data set filed under Homo sapiens was Active.

Consider `COc1ccc2c(=O)n([C@@H](Cc3ccccc3)C(=O)O[C@H]3CC[C@@]4(C)[C@H](CC[C@@H]5[C@@H]4[C@H](O)C(=O)[C@]4(C)[C@@H](c6ccc(=O)oc6)CC[C@]54O)C3)[se]c2c1`, for which the figures for the 50% inhibitory concentration (IC50) (in the data set with HepG2 [1]; in data set [2]; in data set [3]) were 305 nM, 5860 nM and 2200 nM, respectively. Besides, the inhibition entry in the data set on HepG2 [9] was “Active”. Also, the selectivity ratio in [4] was 7.21. Besides, the result in the data set filed under Homo sapiens was Active. The Activity result in data set [5] and in data set [8] was “Non-Toxic” in each case.

As to `Cc1ccc2c(=O)n([C@@H](Cc3ccccc3)C(=O)O[C@H]3CC[C@@]4(C)[C@H](CC[C@@H]5[C@@H]4[C@H](O)C(=O)[C@]4(C)[C@@H](c6ccc(=O)oc6)CC[C@]54O)C3)[se]c2c1`, the IC50 with HepG2 [1] worked out at 489 nM; in data set [2], 7940 nM; in data set [3] it was 3570 nM. Besides, in data set [4], the selectivity ratio stood at 7.3. Also, the result in the data set listed under Homo sapiens was Active. Further, the Activity entry in [5] and in [8] was “Non-Toxic” in each case.
